Test results published in ChEMBL document CHEMBL1201862, “PubChem BioAssay data set” (2004).
Calls of active or inactive are those of the source.

Columns and labels:
[1] = NIH-3T3 fibroblast cytotoxicity, dose response, cytotoxicity control, cell-based, fluorescence, Alamar Blue, secondary assay (AID 2327); format: functional;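 also: NIH-3T3 mouse fibroblasts cultured with fluconazole at 8 µg/mL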
[2] = C. albicans growth with fluconazole, confirmation, fluorescence, retest (AID 2467); format: functional, cell-based
[3] = HEp-2 cell cytotoxicity, dose response, cytotoxicity control for RSV inhibitor project, HTS (AID 2410); format: functional; settings: human respiratory syncytial virus
[4] = tested on: Streptococcus sp. 'group A'; experiment: growth inhibition of control SK(-) GAS strain, dose response, counter-screen for streptokinase expression inhibitor project, luminescence, kanamycin, BacTiterGlo, confirmation (AID 1900); format: functional, organism-based
Streptokinase A = target: T1, Streptokinase A (Streptococcus pyogenes serotype M1, UniProt P10520); experiment: S. pyogenes streptokinase expression inhibitors, potency, dose response, plasminogen activation absorbance, OD405 (AID 1914); format: functional, Streptococcus pyogenes M1 GAS;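 also: secreted streptokinase activity via plasminogen activation per viability signal from cell pellet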
T1 sequence (P10520 whole entry): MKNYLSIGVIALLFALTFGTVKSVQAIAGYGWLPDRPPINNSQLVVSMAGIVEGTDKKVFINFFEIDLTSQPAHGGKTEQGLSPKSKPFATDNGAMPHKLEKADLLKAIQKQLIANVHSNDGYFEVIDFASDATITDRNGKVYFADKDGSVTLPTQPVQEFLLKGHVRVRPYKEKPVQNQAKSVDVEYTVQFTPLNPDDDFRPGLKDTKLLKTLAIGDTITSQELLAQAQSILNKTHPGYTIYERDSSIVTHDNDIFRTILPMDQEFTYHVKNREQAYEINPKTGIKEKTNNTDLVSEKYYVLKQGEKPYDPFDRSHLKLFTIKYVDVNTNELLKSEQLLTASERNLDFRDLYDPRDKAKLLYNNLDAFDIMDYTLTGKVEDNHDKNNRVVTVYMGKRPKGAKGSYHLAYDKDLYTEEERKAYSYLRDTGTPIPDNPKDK

Streptococcus = experiment: Group A Streptococcus viability loss, dose response, counter-screen for streptokinase expression inhibitor project, luminescence, BacTiterGlo (AID 1915); format: functional, organism-based;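 also: potency for reduction of bacterial viability or growth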
[5] = Luminescence Cell-Based Dose Retest to Confirm Inhibitors of Cancer Stem Cells. [Related pubchem assays (depositor defined):AID2717, AID2721]; format: functional; settings: Homo sapiens
[6] = target: T2, Corticotropin-releasing factor receptor 2/Corticotropin-releasing factor-binding protein (Homo sapiens, UniProt P24387+Q13324); experiment: Dose Response confirmation of uHTS hits for small molecule antagonists of the CRF-binding protein and CRF-R2 receptor complex.; format: functional; settings: read-out: IC50_Mean
T2 sequence (Q13324 whole entry): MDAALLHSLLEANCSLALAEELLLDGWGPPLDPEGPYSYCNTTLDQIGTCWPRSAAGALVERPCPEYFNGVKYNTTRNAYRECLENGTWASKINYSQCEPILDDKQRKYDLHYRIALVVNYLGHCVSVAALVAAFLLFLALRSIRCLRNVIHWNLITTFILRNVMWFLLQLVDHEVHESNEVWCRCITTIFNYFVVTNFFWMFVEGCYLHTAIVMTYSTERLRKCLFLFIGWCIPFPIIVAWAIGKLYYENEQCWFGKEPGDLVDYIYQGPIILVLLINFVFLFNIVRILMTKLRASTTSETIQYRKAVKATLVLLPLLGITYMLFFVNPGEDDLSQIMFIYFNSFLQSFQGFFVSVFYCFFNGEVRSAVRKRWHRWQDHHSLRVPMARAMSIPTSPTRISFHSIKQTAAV
T2 sequence (P24387 whole entry): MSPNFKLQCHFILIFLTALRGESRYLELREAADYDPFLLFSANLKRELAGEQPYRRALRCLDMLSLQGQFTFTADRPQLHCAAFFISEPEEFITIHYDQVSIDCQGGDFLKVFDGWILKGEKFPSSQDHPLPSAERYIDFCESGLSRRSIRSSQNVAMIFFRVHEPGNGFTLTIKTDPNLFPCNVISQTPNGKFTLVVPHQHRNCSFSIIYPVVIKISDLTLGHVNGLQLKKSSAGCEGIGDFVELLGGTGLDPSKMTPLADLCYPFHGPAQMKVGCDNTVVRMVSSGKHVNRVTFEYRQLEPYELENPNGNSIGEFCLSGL

[7] = target: T2, Corticotropin-releasing factor receptor 2/Corticotropin-releasing factor-binding protein; experiment: activators of CRF receptor 2 with binding protein – uHTS hits, confirmation (AID 602473); format: functional; settings: read-out: EC50_Mean
Cytochrome P450 3A4 = Cytochrome P450 3A4 (Homo sapiens, UniProt P08684);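 also: CYP3A4 tested as one member of a cytochrome P450 panel screen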
Cytochrome P450 3A4, sequence (P08684 whole entry): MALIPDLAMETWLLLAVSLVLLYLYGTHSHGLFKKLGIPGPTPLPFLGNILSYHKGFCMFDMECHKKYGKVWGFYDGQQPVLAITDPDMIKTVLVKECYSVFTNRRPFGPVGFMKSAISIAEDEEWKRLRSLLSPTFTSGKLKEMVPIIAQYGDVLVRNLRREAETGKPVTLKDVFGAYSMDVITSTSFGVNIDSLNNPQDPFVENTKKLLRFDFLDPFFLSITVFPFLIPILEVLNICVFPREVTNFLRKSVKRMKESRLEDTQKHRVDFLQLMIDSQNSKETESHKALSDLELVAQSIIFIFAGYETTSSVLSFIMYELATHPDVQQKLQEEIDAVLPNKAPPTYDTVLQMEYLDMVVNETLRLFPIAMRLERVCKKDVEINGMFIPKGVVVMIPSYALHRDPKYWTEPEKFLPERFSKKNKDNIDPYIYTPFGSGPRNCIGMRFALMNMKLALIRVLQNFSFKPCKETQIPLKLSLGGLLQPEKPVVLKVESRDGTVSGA

[8] = target: T3, Short transient receptor potential channel 4 (Mus musculus, UniProt Q9QUQ5); experiment: mouse TRPC4 channel inhibitors, dose response, cell-based, HEK293 TRPC4/mu-opioid, Fluo-4 calcium (AID 434942); format: functional;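 also: potency of inhibitors blocking the TRPC4 calcium response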
T3 sequence (Q9QUQ5 whole entry): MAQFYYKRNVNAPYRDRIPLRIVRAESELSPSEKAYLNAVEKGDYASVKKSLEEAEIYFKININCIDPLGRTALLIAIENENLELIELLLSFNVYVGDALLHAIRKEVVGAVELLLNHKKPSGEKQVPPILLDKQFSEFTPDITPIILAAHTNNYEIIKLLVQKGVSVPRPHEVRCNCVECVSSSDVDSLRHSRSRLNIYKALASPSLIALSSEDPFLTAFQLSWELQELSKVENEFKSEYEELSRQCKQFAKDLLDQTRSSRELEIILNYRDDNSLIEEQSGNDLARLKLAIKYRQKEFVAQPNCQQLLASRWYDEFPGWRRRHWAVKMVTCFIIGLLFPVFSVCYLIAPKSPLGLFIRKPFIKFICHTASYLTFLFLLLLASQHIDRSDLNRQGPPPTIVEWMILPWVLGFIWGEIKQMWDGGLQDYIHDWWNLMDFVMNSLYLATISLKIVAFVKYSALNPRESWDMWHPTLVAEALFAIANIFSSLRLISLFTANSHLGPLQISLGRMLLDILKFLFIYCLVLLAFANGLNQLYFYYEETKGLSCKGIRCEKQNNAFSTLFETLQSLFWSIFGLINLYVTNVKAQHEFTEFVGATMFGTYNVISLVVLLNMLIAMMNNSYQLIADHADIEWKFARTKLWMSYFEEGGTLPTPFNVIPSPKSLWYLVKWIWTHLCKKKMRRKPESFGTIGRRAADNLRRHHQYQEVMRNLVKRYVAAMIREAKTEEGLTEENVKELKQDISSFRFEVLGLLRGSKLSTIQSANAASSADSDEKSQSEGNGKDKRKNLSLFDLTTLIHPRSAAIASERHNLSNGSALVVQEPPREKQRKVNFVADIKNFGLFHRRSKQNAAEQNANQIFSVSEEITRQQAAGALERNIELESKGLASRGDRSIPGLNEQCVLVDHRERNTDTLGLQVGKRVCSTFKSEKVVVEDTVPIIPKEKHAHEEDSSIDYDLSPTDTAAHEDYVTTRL

In the case of `COC(=O)c1ccc(NS(=O)(=O)c2cc(-c3cc(C)no3)ccc2OC)cc1`, the EC50 [1] is reported as 127 µM (active) and the EC50 [2] is reported as > 38 µM (not active).
In the case of `Oc1nc(NN=C(S)NC2CCCCC2)nc2c1C1(CCCC1)Cc1ccccc1-2`, the CC50 [3] is reported as 25.7 µM (active), the EC50 [4] is reported as 5.2 µM (active) and the EC50 (Streptokinase A) is reported as 16.1 µM (active). For the same molecule, the EC50 (Streptococcus) was 17.2 µM (active).
With `COc1ccc(NC(=O)c2cc(-c3ccccc3OC)on2)cc1` the AC50 [5] was 0.248 µM (active), the IC50 [6] was > 47.1 µM (inactive) and the EC50 [7] was > 53 µM (inactive).
In the case of `C[C@@H]1OC2C3=C(C(=O)[C@H]4O[C@@H]4[C@H]3O)[C@@H]1[C@H]1[C@H](C)OC=C3[C@H](O)[C@H]4O[C@H]4/C(=N\OCc4ccccc4)[C@@]321`, the AC50 (Cytochrome P450 3A4) is reported as 3.98 µM (inconclusive).
With `Cc1nn(-c2ccccc2)c(Cl)c1C1C(C#N)=C(N)OC2=C1C(=O)CCC2` (stereo unspecified) the EC50 [4] was 1.77 µM (active), the EC50 (Streptokinase A) was > 150 µM (not active) and the EC50 (Streptococcus) was 15.9 µM (active).
With `COc1ccccc1C(=O)Nc1ccc2c(c1)CCCN2C(=O)c1cccs1` the CC50 [3] was 21.5 µM (active) and the EC50 [8] was 3.35 µM (active).
With `CCOc1cc(/C=C2\C(=O)N(Cc3ccc(C)cc3)C(C)=C2C(=O)OC)ccc1O` the AC50 (Cytochrome P450 3A4) was 1 µM (inconclusive).
With `CN(C)c1ccc([N+](=O)[O-])cc1C(=O)NCC(c1ccco1)N(C)C` (stereo unspecified) the EC50 [8] was 0.299 µM (active).
In the case of `Cc1n[nH]c(C)c1CCCCOc1ccccc1F`, the EC50 [8] is reported as 3.76 µM (active).
For `CN1CCCCc2c1nc1ccccc1c2N.O=C(O)c1cncc(Br)c1`, the EC50 [8] was 0.668 µM (active).
With `Cc1ccc(SCCNC(=O)c2ccccc2)cc1` the AC50 (Cytochrome P450 3A4) was 12.6 µM (inconclusive).
With `NC(=O)c1nsc(C(=O)N(Cc2ccco2)C(C(=O)NCc2ccc(F)cc2)c2ccc(O)cc2)c1N` (stereo unspecified) the EC50 [8] was 0.105 µM (active).
In the case of `CCOC(=O)c1[nH]c2cc(OC)c(OC)cc2c1NC(=O)c1nonc1C`, the AC50 (Cytochrome P450 3A4) is reported as 2.82 µM (inconclusive).
For `CCC/C(=C1/c2ccccc2C(=O)N1c1ccccc1)c1ccc2[nH]ccc2c1`, the AC50 [5] was 1.04 µM (active).
With `Cc1ccc(Oc2ccccc2/C=N/O)cc1` the EC50 [8] was 9.44 µM (active).
With `NC(=O)N/N=C1\c2ccccc2-c2c(C(N)=O)cccc21` the EC50 [8] was 1.5 µM (active).
For `C/C(CC(=O)NCc1ccco1)=N\NC(=O)Cc1ccccc1`, the AC50 (Cytochrome P450 3A4) was 17.8 µM (inconclusive).
In the case of `O=C(CSc1ccc2ccccc2n1)N/N=C/c1ccccc1O`, the EC50 [4] is reported as 1.1 µM (active), the EC50 (Streptokinase A) is reported as > 150 µM (not active) and the EC50 (Streptococcus) is reported as 2.9 µM (active).
For `Cc1c(O)cc2c(c1O)C(=O)CC(c1ccccc1)O2` (stereo unspecified) [STROBOPININ], the AC50 [5] was 4.97 µM (active) and the EC50 [7] was 2.69 µM (active).
